Assay results from patent US11434221B2, “Pyrazine-4-carbamate or -urea derivatives as herbicides” (Syngenta Participations AG, priority 2017, dated 2022).

What was measured:
Assay type in all cases: in vivo
Parameters in all cases: key: 5=total damage to plant; 0=no damage to plant
Lolium perenne (LOLPE) [1] = assay: Pre-emergence herbicidal activity, glasshouse pot test; settings: Rate 1000 g/ha; sprayed one day after sowing; evaluated after 13 days
Procedure, shortened: (§1)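 Damage rating on a 0–5 scale (5 = total plant damage) at 13 days after pre-emergence spraying. Pots of standard soil were sown and held one day at 24/16 °C, 14 h light, 65% humidity before application of an acetone/water 50:50 formulation containing 0.5% Tween 20.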

Setaria faberi (SETFA) [2] = assay: as above; settings: Rate 1000 g/ha; sprayed one day after sowing; evaluated after 13 days
Procedure, shortened: as §1

[3] = system: Triticum aestivium (TRZAW); assay: as above; settings: Rate 1000 g/ha; sprayed one day after sowing; evaluated after 13 days
Procedure, shortened: as §1

Avena fatua (AVEFA) [4] = assay: as above; settings: Rate 1000 g/ha; sprayed one day after sowing; evaluated after 13 days
Procedure, shortened: as §1

[5] = system: Alopecurus myosuroides (ALOMY); assay: as above; settings: Rate 1000 g/ha; sprayed one day after sowing; evaluated after 13 days
Procedure, shortened: as §1

[6] = system: Echinochloa crus-galli (ECHCG); assay: as above; settings: Rate 1000 g/ha; sprayed one day after sowing; evaluated after 13 days
Procedure, shortened: as §1

Lolium perenne (LOLPE) [7] = assay: Post-emergence herbicidal activity, glasshouse pot test; settings: Rate 1000 g/ha; sprayed after 8 days cultivation; evaluated after 13 days
Procedure, shortened: (§2)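 Post-emergence spray, 8-day-old pot-grown plants; vehicle acetone/water 50:50 + 0.5% Tween 20. Glasshouse 24/16° C day/night, 14 h light, 65% RH, watered 2×/day. Visual damage rated day 13, 0–5.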

Setaria faberi (SETFA) [8] = assay: as above; settings: Rate 1000 g/ha; sprayed after 8 days cultivation; evaluated after 13 days
Procedure, shortened: as §2

[9] = system: Triticum aestivium (TRZAW); assay: as above; settings: Rate 1000 g/ha; sprayed after 8 days cultivation; evaluated after 13 days
Procedure, shortened: as §2

Avena fatua (AVEFA) [10] = assay: as above; settings: Rate 1000 g/ha; sprayed after 8 days cultivation; evaluated after 13 days
Procedure, shortened: as §2

[11] = system: Alopecurus myosuroides (ALOMY); assay: as above; settings: Rate 1000 g/ha; sprayed after 8 days cultivation; evaluated after 13 days
Procedure, shortened: as §2

[12] = system: Echinochloa crus-galli (ECHCG); assay: as above; settings: Rate 1000 g/ha; sprayed after 8 days cultivation; evaluated after 13 days
Procedure, shortened: as §2

Compound | Control of weed species after pre-emergence application, LOLPE (damage score 0-5) (Lolium perenne (LOLPE) [1]) | Control of weed species after pre-emergence application, SETFA (damage score 0-5) (Setaria faberi (SETFA) [2]) | Control of weed species after pre-emergence application, TRAZW (damage score 0-5) [3] | Control of weed species after pre-emergence application, AVEFA (damage score 0-5) (Avena fatua (AVEFA) [4]) | Control of weed species after pre-emergence application, ALOMY (damage score 0-5) [5] | Control of weed species after pre-emergence application, ECHCG (damage score 0-5) [6] | Control of weed species after post-emergence application, LOLPE (damage score 0-5) (Lolium perenne (LOLPE) [7]) | Control of weed species after post-emergence application, SETFA (damage score 0-5) (Setaria faberi (SETFA) [8]) | Control of weed species after post-emergence application, TRAZW (damage score 0-5) [9] | Control of weed species after post-emergence application, AVEFA (damage score 0-5) (Avena fatua (AVEFA) [10]) | Control of weed species after post-emergence application, ALOMY (damage score 0-5) [11] | Control of weed species after post-emergence application, ECHCG (damage score 0-5) [12]
Cc1nc(-c2cncc(F)c2)cnc1N(C)C(=O)OC(C)(C)C [Compound H19, tert-butyl N-(3-methyl-5-(5-fluoropyridin-3-yl)-pyrazin-2-yl)-N-methyl-carbamate] | 1 | 5 | 0 | 2 | 0 | 4 | 2 | 5 | 0 | 3 | 0 | 4
C=Cc1nc(-c2cncc(F)c2)cnc1N(C(=O)OC(C)(C)C)C(=O)OC(C)(C)C [Compound H20] | 1 | 4 | 1 | 2 | 0 | 2 | 3 | 5 | 1 | 2 | 0 | 4
